Measured values: ChEMBL document CHEMBL3301546, “MMV Malaria Box yeast growth screening”

How the values were obtained:
Assay type in all cases: functional
Saccharomyces cerevisiae [1] = assay: (§1) MMV: Growth assays were conducted using the prototrophic S. cerevisiae strain JHY222. Each MMV compound (0.1 mM) was tested in minimal media containing dextrose as a carbon source (Yeast Nitrogen Base, Dextrose; YNBD). The growth rate in the presence of each MMV compound was calculated as follows: (i) the first 10 OD readings were averaged and subtracted from all OD readings of the corresponding curve to set the baseline of the growth curve to zero, and (ii) the area under the curve (AUC) was then calculated as the sum of all OD readings. […] A relative growth value was calculated as follows: AUC(DRUG) - AUC(DMSO)/AUC(DMSO); where AUC(DMSO) represents growth measured in a DMSO control well that was on the same microtiter plate of the drug-treated culture.
Saccharomyces cerevisiae [2] = assay: as §1, with “rich” for “minimal”, “Extract, Peptone,” for “Nitrogen Base,”, “YPD).” for “YNBD).”
Saccharomyces cerevisiae [3] = assay: as §1, with “ethanol and glycerol” for “dextrose”, “as” for “as a”, “sources” for “source”, “Ethanol, Glycerol; YNBEG).” for “Dextrose; YNBD).”

SMILES | Relative Growth (Saccharomyces cerevisiae [1]) | Relative Growth (Saccharomyces cerevisiae [2]) | Relative Growth (Saccharomyces cerevisiae [3])
CC1CC2=C(CC1CNCCCN(C)C)C(C)(C)CCC2 (stereo not given) | 0.0086 | 0.0011 | -0.1687
Cc1ccc2nc(C)cc(Nc3cccc(C(F)(F)F)c3)c2c1.Cl | -0.0826 | -0.0219 | -0.1571
COc1cccc(Cn2c(Oc3ccccc3)nc3c2c(=O)n(C)c(=O)n3C)c1 | -0.1115 | -0.0536 | -0.4904
CCOC(=O)c1c(NC(=O)c2ccccc2)sc2c(O)c(CN(CC)CC)ccc12 | 0.0832 | -0.0008 | 0.1716
O=C(Nc1cccc(C(F)(F)F)c1)c1cc(Cl)ccc1O | -1.0097 | -0.651 | -1.011
CC(C)(C)C(=O)Nc1ccc(C(=O)Nc2cccc(-c3nc4ccccc4[nH]3)c2)cc1 | -0.1639 | 0.0628 | -0.4785
Brc1ccc(Nc2nc3ccccc3nc2Nc2ccc(Br)cc2)cc1 | -0.0577 | -0.9981 | -0.5592
Cc1cc(NC(=O)c2cccc(C(F)(F)F)c2)n(-c2nc(-c3ccc4c(c3)OCO4)cs2)n1 | -0.0865 | -0.007 | -0.0763
CN(C)CCNc1cc(-c2ccccc2)nc2ccccc12 | 0.1058 | -0.0237 | 0.0694
Cl.Oc1ccccc1CNCC12CC3CC(CC(C3)C1)C2 | 0.0701 | -0.0154 | 0.0858
CC1CN(C(=O)c2sc3ccccc3c2Cl)CC(C)O1 (stereo not given) | 0.0985 | -0.0005 | -0.1107
Oc1c(C(Nc2ccccn2)c2cccc(Oc3ccccc3)c2)ccc2cccnc12 (stereo not given) | 0.0038 | -0.9969 | -0.1371
COc1ccc(-c2nonc2NC(=O)c2cccc(Cl)c2)cc1OC | 0.1832 | -0.028 | 0.0561
CCN(CC)c1ccc(NC(=O)c2cccs2)cc1 | -0.1938 | -0.0445 | -0.4168
CN(N=O)C1=C(NC2CCCCC2)C(=O)c2ccccc2C1=O | -0.0674 | -0.04 | -0.7745
COc1ccc(-c2cc(=O)oc3c4c(ccc23)OCN(Cc2ccc(F)cc2)C4)cc1 | 0.0043 | 0.0536 | -0.013
Cl.Clc1cc(Br)ccc1-c1ccc(CNCC2CCNCC2)o1 | 0.0133 | 0.004 | -0.083
N#Cc1nc(Cc2cccc3ccccc23)oc1N1CCN(C(c2ccccc2)c2ccccc2)CC1 | 0.059 | -0.0026 | 0.0463
COc1ccc(CNC(=O)c2cc3c(=O)n4ccccc4nc3n(CCc3ccccc3)c2=N)cc1 | -0.2162 | -0.0554 | -0.0439
O=C(NC1CCN(Cc2ccccc2)CC1)c1cc2nc(-c3ccc(Cl)s3)cc(C(F)(F)F)n2n1 | 0.0049 | 0.0199 | -0.0027
Cc1ccc(-c2cc3nc4c(c(O)n3n2)CCCC4)cc1 | -1.0172 | -0.3245 | -1.0646
O=C(NNc1cc(N2CCCC2)nc(N2CCCC2)n1)c1ccccc1 | 0.0342 | -0.9952 | -0.0043

SMILES | Relative Growth (Saccharomyces cerevisiae [1]) | Relative Growth (Saccharomyces cerevisiae [2]) | Relative Growth (Saccharomyces cerevisiae [3])
CCCCOc1ccc(C(=O)Nc2cc(C)on2)cc1 | -0.0653 | -0.0346 | -0.1988
CCCCCCn1c(=N)n(CC(O)COc2cccc(C)c2)c2ccccc21.Cl (stereo not given) | -0.1558 | -0.051 | -0.0105
Oc1ccc2ccccc2c1CNc1nc2ccccc2[nH]1 | -0.1179 | -0.0053 | -0.0356
COc1cc(SC)ccc1C(=O)N1CCCC(C)C1 (stereo not given) | 0.0716 | -0.0213 | -0.0182
COc1cc(OC)c(N(C)C(=O)c2cc3c(s2)-c2ccccc2S(=O)(=O)C3)cc1Cl | -0.1342 | -0.2124 | -0.2428
Cc1ccc(Nc2nc(NCCO)c3ccccc3n2)cc1C | 0.0139 | -0.1142 | 0.0228
Br.CCn1c2c(c(=N)c3c1CCC3)CCCC2 | -0.0127 | -0.135 | -0.0042
COc1cccc(NC(=O)Cn2c(C)c(C#N)c3ccccc32)c1 | -1.0078 | -0.9399 | -1.0064
Cc1ccc(N2C(=O)C3C(C2=O)C2(c4ccccc4)C(=O)C3(c3ccccc3)C(c3ccccc3)=C2c2ccccc2)cc1 (stereo not given) | 0.0552 | 0.0561 | 0.0311
O=C(Nc1cccc(C2=NCCN2)c1)Nc1cccc(C2=NCCN2)c1 [IMIDOCARB] | 0.0218 | -0.365 | 0.0151
O=C(Nc1ccccc1O)c1ccc(Oc2cccc(C(=O)Nc3ccccc3O)c2)cc1 | 0.0291 | -0.023 | -0.0198
Cc1ccc(Nc2nc(-c3ccccn3)cs2)cc1 | 0.0898 | 0.0194 | 0.1504
CCOc1ccc2c(c1)CN(Cc1ccc(Cl)cc1)CO2 | -0.0363 | -0.0457 | -0.0581
CC(C)c1ccc(CNCC(O)c2ccccc2)cc1.Cl (stereo not given) | 0.1145 | -0.02 | 0.0017
O=C(Nc1ccc(C23CC4CC(CC(c5ccccc5)(C4)C2)C3)cc1)c1cccs1 | -0.46 | -1.0024 | -0.1427
FC(F)(F)c1cccc(CNC2CCN(CCc3ccccc3)CC2)c1 | -0.0056 | -0.0003 | -0.3142
CCCCCC(=O)N1c2ccccc2N=C2CC(c3ccc(OC)c(OC)c3)CC(O)=C2C1c1ccc(C(F)(F)F)cc1 (stereo not given) | 0.1507 | -0.0291 | 0.0121
CN1CCN(c2ccc(Nc3c4ccccc4nc4ccccc34)cc2)CC1 | 0.0237 | 0.031 | 0.1233
Cc1ccc2c(C)nc(Nc3nc(C)cc(-c4ccccc4)n3)nc2c1 | -0.1458 | -0.9982 | -0.009
CCN(CC)CCNc1ncnc2c1[nH]c1ccc(Cl)cc12 | 0.0885 | -0.0494 | 0.0317
O=C(Nc1ccsc1C(=O)NC1CCCCC1)c1ccc(F)cc1 | 0.1187 | -0.9286 | –
CC(NCc1ccccc1)c1cc(Cl)ccc1O (stereo not given) | 0.042 | -0.0386 | –
